Data on ten molecules can be found in patent US9115065B2 (priority 2004, dated 2015).

Read-outs that look alike come from different tables or passages of the source. Where only a bound is given, the exact number is not on record here.

For one assay, the system named is Tacaribe virus. The assay can be described thus: microbe, parasite or virus in culture. Type of assay: cell-based. The following applies: Mammarenavirus tacaribeense, Vero.
In assay [1] the test system is icd-GPC. It is filed as binding, Junin virus.
For assay [2], the system named is icd-GPC. Type of assay: binding, Junin virus. The source holds these as a separate data set.
In a further assay the test system is Machupo. Nature of the assay: microbe, parasite or virus in culture. Type of assay: cell-based. The following applies: Mammarenavirus machupoense, HEK-293T, read-out: Antiviral activity vs. pseudotyped viruses: Machupo.
The subject of a further assay is Junín. The assay can be described thus: microbe, parasite or virus in culture. Type of assay: cell-based, Junin virus. The following applies: Mammarenavirus juninense, HEK-293T, read-out: Antiviral activity vs. pseudotyped viruses: Junín.
Another assay has as its target JUNV GPC (Junin mammarenavirus, UniProt P26313). The assay can be described thus: cell-based. More on the design: species or system Junin virus.
The next assay relates to VSV. The assay can be described thus: microbe, parasite or virus in culture. It is filed as cell-based. The following applies: Vesicular stomatitis virus, HEK-293T, read-out: VSV (μM) (negative control).
Another assay has as its system Guanarito. Nature of the assay: microbe, parasite or virus in culture. The following applies: Mammarenavirus guanaritoense, HEK-293T, read-out: Antiviral activity vs. pseudotyped viruses: Guanarito. Type of assay: cell-based.
The subject of another assay is Tacaribe. The assay can be described thus: microbe, parasite or virus in culture. Type of assay: cell-based. The following applies: Mammarenavirus tacaribeense, HEK-293T, read-out: Antiviral activity vs. pseudotyped viruses: Tacaribe.

JUNV GPC, sequence (P26313 2-58 limits assumed): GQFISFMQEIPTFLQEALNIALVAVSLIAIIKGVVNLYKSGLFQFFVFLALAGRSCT
JUNV GPC, sequence (P26313 59-251 partner limits assumed): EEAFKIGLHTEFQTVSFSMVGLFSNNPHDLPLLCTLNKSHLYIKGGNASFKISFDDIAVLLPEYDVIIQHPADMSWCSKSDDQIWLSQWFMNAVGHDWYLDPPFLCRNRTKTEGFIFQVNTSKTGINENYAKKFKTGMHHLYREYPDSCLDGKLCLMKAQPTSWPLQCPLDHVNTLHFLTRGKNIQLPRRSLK
JUNV GPC, sequence (P26313 252-485 limits assumed): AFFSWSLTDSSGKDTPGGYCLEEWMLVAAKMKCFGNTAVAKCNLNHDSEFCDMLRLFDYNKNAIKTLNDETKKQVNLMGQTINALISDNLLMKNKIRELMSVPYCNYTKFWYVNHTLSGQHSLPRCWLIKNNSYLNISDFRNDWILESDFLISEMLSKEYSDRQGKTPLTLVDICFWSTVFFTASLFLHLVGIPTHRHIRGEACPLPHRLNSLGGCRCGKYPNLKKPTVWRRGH

In the case of `CCC(NC(=O)NNS(=O)(=O)c1ccc(OC(F)F)cc1)(C(F)(F)F)C(F)(F)F` [Compound 108, 1-[1,1-bis(trifluoromethyl)propyl]-3-[[4-(difluoromethoxy)phenyl]sulfonyl-amino]urea], the EC50 in the assay with Tacaribe virus (read-out: Tacaribe (result of cytopathic effect assay)) was below 1000 nM.
Consider `COc1ccc(-n2cnc3cc(NCc4ccc(C(C)C)cc4)ccc32)cc1` [ST-193, reference compound], for which the “displacement of bound ST-375 from icd-GPC” value with icd-GPC [1] is “displaced from icd-GPC in a time- and concentration-dependent manner”.
Turning to `CCC(NC(=O)NNS(=O)(=O)c1cccc2c(N(C)C)cccc12)(C(F)(F)F)C(F)(F)F` [Compound 110, 1-[1,1-bis(trifluoromethyl)propyl]-3-[[5-(dimethylamino)-1-naphthyl]sulfonylamino]urea], the “dansyl fluorescence at 525 nm on binding to solubilized icd-GPC” value with icd-GPC [2] is “increase in a time-dependent manner”. The EC50 was below 1000 nM in the assay with Machupo; below 1000 nM in the assay with Junín; 600 nM on JUNV GPC; above 30 µM in the assay with VSV; below 10000 nM in the assay with Guanarito; below 1000 nM in the assay on Tacaribe.
Take `CCC(NC(=O)NNS(=O)(=O)c1ccc(-c2csnn2)cc1)(C(F)(F)F)C(F)(F)F` [Compound 114, 1-[1,1-bis(trifluoromethyl)propyl]-3-[[4-(thiadiazol-4-yl)phenyl]sulfonylamino]urea]: the EC50 is below 1000 nM with Machupo; below 1000 nM with Junín; above 30 µM in the assay on VSV; below 1000 nM with Guanarito; below 1000 nM in the assay on Tacaribe.
`CCC(NC(=O)NNS(=O)(=O)c1ccc2c(c1)OCCN2C)(C(F)(F)F)C(F)(F)F` [Compound 112, 1-[1,1-bis(trifluoromethyl)propyl]-3-[(4-methyl-2,3-dihydro-1,4-benzoxazin-7-yl)sulfonylamino] urea]: the EC50 was below 1000 nM in the assay on Machupo, above 30 µM in the assay on VSV, below 10000 nM in the assay with Guanarito and below 1000 nM in the assay on Tacaribe.
Regarding `CCC(NC(=O)NNS(=O)(=O)c1ccc(C(C)(C)C)cc1)(C(F)(F)F)C(F)(F)F` [Compound 100, 1-[1,1-bis(trifluoromethyl)propyl]-3-[(4-tert-butylphenyl)sulfonylamino]urea], the EC50 is below 1000 nM in the assay on Machupo, 19.7 µM in the assay on VSV, below 1000 nM in the assay with Guanarito and below 1000 nM in the assay on Tacaribe.
Take `CCC(NC(=O)NNS(=O)(=O)c1ccc2ccccc2c1)(C(F)(F)F)C(F)(F)F` [Compound 102, 1-[1,1-bis(trifluoromethyl)propyl]-3-(2-naphthylsulfonylamino)urea]: the EC50 in the assay with Machupo is below 1000 nM; in the assay with VSV, above 20 µM; with Guanarito it was below 1000 nM; with Tacaribe, below 1000 nM.
`CCC(NC(=O)NNS(=O)(=O)c1ccc(Br)cc1)(C(F)(F)F)C(F)(F)F` [Compound 107, 1-[1,1-bis(trifluoromethyl)propyl]-3-[(4-bromophenyl)sulfonylamino] urea]: the EC50 was below 1000 nM with Machupo, above 30 µM with VSV, below 1000 nM with Guanarito and below 1000 nM with Tacaribe.
On to `CCC(NC(=O)NNS(=O)(=O)c1ccc(-c2ccccc2)cc1)(C(F)(F)F)C(F)(F)F` [Compound 116, 1-[1,1-bis(trifluoromethyl)propyl]-3-[(4-phenylphenyl)sulfonylamino] urea], for which the EC50 is below 1000 nM in the assay on Machupo, above 20 µM in the assay on VSV, below 10000 nM in the assay on Guanarito and below 1000 nM in the assay on Tacaribe.
For the molecule `CC(NC(=O)Nc1ccccc1C(F)(F)F)(C(F)(F)F)C(F)(F)F` [Example 97, 1-(2-Trifluoromethylphenyl)-3-(2,2,2-trifluoro-1-methyl-1-trifluoromethylethyl)-urea], the EC50 with Tacaribe virus (read-out: Tacaribe EC50) was above 5000 nM.
